In patent US8217071B2, “Use of inhibitors of the degradation of p27, in particular Argyrin and derivatives thereof, for the treatment of proliferative diseases” (Helmholtz Zentrum für Infektionsforschung GmbH, priority 2007, dated 2012):
≈ marks a conversion by molar mass, not a printed value. Numbered stars: 1 amine (or outer) side, 2 acyl side, 3 side chain; on linkers, the order of the positions; unused ones are H or OH. Square brackets hold non-standard residues; d marks the D form. Peptide text beside a SMILES is read from it. * marks the point of attachment. X1 = COc1cccc2[nH]c(C)c(C[C@H](N[*:1])C(=O)[*:2])c12; dAla(ψthiazole) = C[C@@H](N[*:1])c1nc(C(=O)[*:2])cs1; Trp(4-OMe) = COc1cccc2[nH]cc(C[CH](N)C(=O)O)c12; X2 = O=C(c1csc([C@@H](CO)N[*:1])n1)[*:2]; GlyΨ(Thz) = O=C(c1csc(CN[*:1])n1)[*:2]; dAbu = CC[C@@H](N)C(=O)O; Cbz = O=C(OCc1ccccc1)*; Dha = C=C(N)C(=O)O; Sar = CNCC(=O)O

How the values were obtained:
[1] = test system: p27-GFP (clone H15GFP-p27, HeLa-cell line; cervix-carcinoma); assay: GFP-fluorescence per FACS in clone H15GFP-p27; type: cell-based, human; settings: GFP-fluorescence per FACS after 24 h incubation, 500 ng/ml
Text: Human p27cDNA (in plasmid vector CS2+) was digested with EcoR1 and BamH1, and the resulting fragment was ligated after gel purification into the vector pEGFP-N1 (Clontech) that was cut with the same restriction enzymes. Thus, a […] fusion with the GFP as contained in the pEGFP-vector was generated. The plasmid was then transfected into Hela cells, and, following selection of the cells with kanamycin, cellular clones were isolated which had the plasmid integrated stably into their chromosome. The expression of the p27EGFP proteins was confirmed using Western blots and immune precipitations for both p27 and GFP.
(§1) The following table summarizes the effects of argyrin-derivatives A to H on two cancer cell lines, H15 (cervix carcinoma) and SW-480 (colon cancer). In order to test the efficacy, a p27-GFP-clone was used.

[2] = test system: SW-480 (colon cancer); assay: MIC (visual), serial dilution, SW-480; type: cell-based, human; settings: minimal concentration of a serial dilution exhibiting a visual effect
Text: as §1

[3] = test system: SW-480 (colon cancer cell line); assay: MTT-test proliferation of SW-480; type: cell-based, human; settings: for IC-50 SW-480: half-maximal inhibition of proliferation
Method: (§2) MTT assays were done as previously described (Sasse, F. et al. Argyrins, immunosuppressive cyclic peptides from myxobacteria. I. Production, isolation, physico-chemical and biological properties. J Antibiot (Tokyo) 55, 543-51 (2002)). TUNEL staining of tissue sections was performed on 10 micrometer sections which were deparafinised and treated as recommended by the manufacturer. (In Situ Cell Death Detection Kit, Fluorescein; ROCHE, Cat #11 684 795 910). Flow cytometric analysis of cultured cells was done using a Becton Dickinson fluorescence cytometer as previously described (Malek, N. P. et al. A mouse knock-in model exposes sequential proteolytic pathways that regulate p27^Kip1 in G1 and S phase. Nature 413, 323-7 (2001)). Analysis of the distribution of cells in the cell cycle and the sub-G1 fraction was done using Cell Quest software. A histone-associated-DNA-fragments ELISA was used to determine the number of apoptotic cells according to manufacturers instructions (Roche #11 774425001).

[4] = test system: H15 (cervix carcinoma); assay: MIC (visual), serial dilution, H15; type: cell-based, human; settings: minimal concentration of a serial dilution exhibiting a visual effect
Text: as §1

[5] = test system: mouse embryonic fibroblasts from p27^kip1 knockout mice; assay: Apoptosis (sub-G1 fraction) by flow cytometry in p27 knockout MEF; type: cell-based; settings: sub G1 fraction
Text: (§3) Next the inventors tested whether the stabilization of p27 was indeed required for the apoptosis inducing function of Argyrin A or was merely a consequence of proteasome inhibition. For this the inventors treated immortalized mouse embryonic fibroblasts from p27^kip1 wildtype or knockout mice with Argyrin A or the proteasome inhibitor bortezomib and assayed cell cycle distribution and apoptosis by flow cytometry. […] These differences in sensitivity in response to Argyrin A treatment were not due to differences in the accumulation of other proteasomal substrates in p27 wildtype and knockout cells as p53 and p21 levels increased in both cell lines in response to Argyrin A (FIG. 6B). To extend this observation to human cancer cells the inventors reduced the levels of p27^kip1 in HeLa cells using p27^kip1 specific siRNA.
(§4) The results shown are the average numbers for six independent experiments. b+d) Wildtype (b) and p27 knockout (d) MEF were treated with Argyrin A or transfected with siRNAs specific for the β1, β2 or β5 subunit of the proteasome for 24 hours. The graphs show the remaining catalytic activity of the different proteasome subunits after Argyrin A or siRNA treatment compared to an untreated control (n=3). The western blots show the expression of the β1, β2 or β5 subunit of the proteasome in proliferating cells and after treatment with siRNAs for a representative experiment. c+e) Flow cytometric measurements of the number of apoptotic cells (sub-G1 fraction) after Argyrin A or siRNA treatment in wildtype (c) or p27 knockout (E) MEF. f) HeLa cells were treated with Argyrin A or siRNA against p27 or Argyrin A and siRNA against p27 for either 24 or 48 hours.
as §2

[6] = test system: mouse embryonic fibroblasts from p27^kip1 wildtype mice; assay: Apoptosis (sub-G1 fraction) by flow cytometry in p27 wildtype MEF; type: cell-based; settings: sub G1 fraction
Text: as §3, §4, §2

Row | Structure (SMILES) | Mean of FSC-H (Log) H15 p27-GFP-clone [1] | MIC (visual) SW-480 [2] [µg/mL] | IC50 ([3]; Homo sapiens, SW480, half-maximal inhibition of proliferation, read-out: IC-50 SW-480) [µg/mL] | MIC (visual) H15 [4] [µg/mL] | IC-50 SW-480 [3] | apoptosis in p27 knockout MEF [5] | apoptosis in p27 wildtype MEF [6]
1 | C=C1NC(=O)[C@@H](CC)NC(=O)CNC(=O)[C@H](Cc2c[nH]c3cccc(OC)c23)NC(=O)[C@H](Cc2c[nH]c3ccccc23)NC(=O)c2csc(n2)[C@@H](C)NC(=O)CN(C)C1=O [Argyrin B, argyrin B] (cyclo([Dha][Sar][dAla(ψthiazole)]W[Trp(4-OMe)]G[dAbu])) | 7.60 | 12 (≈ 14.3 µM) | ~0.05 (≈ 0.0596 µM) | 12 (≈ 14.3 µM) |  |  | 
2 | C=C1NC(=O)[C@@H](C)NC(=O)CNC(=O)[C@H](Cc2c(C)[nH]c3cccc(OC)c23)NC(=O)[C@H](Cc2c[nH]c3ccccc23)NC(=O)c2csc(n2)[C@@H](C)NC(=O)CN(C)C1=O [Argyrin C] (cyclo(W[X1]G[dA][Dha][Sar][dAla(ψthiazole)])) | 7.36 | 37 (≈ 44.1 µM) |  | 37 (≈ 44.1 µM) | Ca. 0.05 μg/ml |  | 
3 | C=C1NC(=O)[C@@H](CC)NC(=O)CNC(=O)[C@H](Cc2c(C)[nH]c3cccc(OC)c23)NC(=O)[C@H](Cc2c[nH]c3ccccc23)NC(=O)c2csc(n2)[C@@H](C)NC(=O)CN(C)C1=O [Argyrin D] (cyclo(W[X1]G[dAbu][Dha][Sar][dAla(ψthiazole)])) | 7.69 | 37 (≈ 43.4 µM) |  | 12 (≈ 14.1 µM) | Ca. 0.05 μg/ml |  | 
4 | C=C1NC(=O)[C@@H](C)NC(=O)CNC(=O)[C@H](Cc2c[nH]c3cccc(OC)c23)NC(=O)[C@H](Cc2c[nH]c3ccccc23)NC(=O)c2csc(n2)[C@@H](CO)NC(=O)CN(C)C1=O [Argyrin F, argyrin F] (cyclo([Dha][Sar][X2]W[Trp(4-OMe)]G[dA])) | 11.24 | 0.2 (≈ 0.238 µM) |  | 0.5 (≈ 0.595 µM) | 0.05 µg/mL |  | 
5 | C=C1NC(=O)C(C)NC(=O)CNC(=O)C(Cc2c[nH]c3cccc(OC)c23)NC(=O)C(Cc2c[nH]c3ccccc23)NC(=O)c2csc(n2)CNC(=O)CN(C)C1=O (stereo not drawn) [Argyrin H] (cyclo([Dha][Sar][GlyΨ(Thz)]W[Trp(4-OMe)]GA); configuration not given here) |  | 37 (≈ 45.6 µM) |  | 37 (≈ 45.6 µM) | Ca. 0.5 μg/ml |  | 
6 | CC(C)C[C@@H](C=O)NC(=O)[C@H](CC(C)C)NC(=O)[C@H](CC(C)C)NC(=O)OCc1ccccc1 [MG132] (Cbz-Leu-Leu-Leu-aldehyde) |  |  |  |  |  | same response | same response
